Earlier results as cited in patent publication US6759063B2, “Methods and compositions for reducing sympathomimetic-induced side effects” (priority 1999, dated 2004).

What was measured:
[1] = rodents and humans
[2] = system: cloned human alpha1A- and alpha1B-adrenoceptors; conditions: phenylephrine-stimulated; cloned receptors
[3] = system: human alpha1-adrenoceptors; conditions: up to the highest concentration that could be tested
[4] = 150 mg/day; obese outpatients
[5] = separate studies

Cn1c(=O)c2c(ncn2C)n(C)c1=O [caffeine]
thermogenic and anti-obesity properties [1]: no effect

CC[C@H](CC[C@@H](C)[C@H]1CC[C@H]2[C@@H]3CC=C4C[C@@H](O)CC[C@]4(C)[C@H]3CC[C@]12C)C(C)C [beta-sitosterol]
inhibition of agonist-induced [3H]inositol phosphate formation [2]: without consistent inhibitory effect | inhibition of radioligand binding to human alpha1-adrenoceptors [3]: without consistent inhibitory effect

CN[C@@H](C)[C@H](O)c1ccccc1 [ephedrine]
adverse side effects versus placebo group [4]: significantly greater adverse side effects | thermogenic and anti-obesity properties [1]: potent thermogenic and anti-obesity properties

CCN[C@@H](C)Cc1cccc(C(F)(F)F)c1 [dexfenfluramine]
weight loss in obese patients [5]: promote weight loss
